Like-named read-outs stand apart in the source and are kept apart here.
Assays:
[1] = test system: P. falciparum 3D7; set-up: method as in ChEMBL-NTD; settings: ref ChEMBL-NTD, cited from earlier work
[2] = test system: P. falciparum 3D7; assay: DAPI stain fluorescent high content imaging assay, P. falciparum 3D7 (confirmatory screen, Avery); settings: Plasmodium falciparum; for EC50: 3D7, read-out: EC50_nM; for inhibition of growth at 2 µM: 3D7, read-out: percent_inh @ 2 uM; for inhibition of growth at 5 µM: 3D7, read-out: percent_inh @ 5 uM
[3] = original screening data, source (GSK, GNF, StJude), several values separated by ';' in order of sources
[4] = values follow the order of the source (GNF; GSK; StJude)

Row | EC50 [2] [nM] | SMILES | inhibition of growth at 5 µM [2] [%] | other results
1 | 4000 | COc1cc(SC)ccc1C(=O)N1CCCC(C)C1 (stereo not drawn) [MMV056726] | – | EC50 [1, 3]: 9810 nM; inhibition of growth at 2 µM [2]: 45%
2 | 1290 | C=CCc1c(C)nc2ccccc2c1O [MMV006913] | 85 | EC50 [1, 3]: 707 nM
3 | 545 | Cn1c(=O)n(C)c2cc(CNCCNc3ccnc4cc(Cl)ccc34)ccc21 [MMV665875] | 90 | EC50 [1, 4]: 140 nM
4 | 32.8 | Cc1cc(NC(=O)C2c3ccccc3C(=O)N(CC(C)C)C2c2cccs2)no1 (stereo not drawn) [MMV006429] | 100 | EC50 ([1]; source GNF (GNF-Pf id)): 85.6 nM
5 | – | COCCNC(=O)c1ccc(OC2CCN(Cc3ccc(F)c(F)c3)CC2)c(Cl)c1 [MMV666072] | 91 | EC50 ([1]; source GSK): 1490 nM
6 | 929 | Cc1cccc(-n2ncc3c(=O)[nH]c(-n4nc(C)cc4NC(=O)c4cc5ccccc5o4)nc32)c1 [MMV403679] | – | –
7 | – | CCN(CC)CCCNc1ccnc2cc3ccccc3cc12 [MMV665783] | 90 | EC50 ([1]; source GNF (GNF-Pf ids)): 33.8 nM
8 | – | Cc1c(C)n(Cc2ccc(F)cc2)c2ccc(C(=O)NCc3ccco3)cc12 [MMV008149] | 52 | EC50 ([1]; source GNF): 78.2 nM
9 | 854 | COc1cccc(Nc2nc(NCCO)c3ccccc3n2)c1 [MMV011944] | – | EC50 ([1]; source GNF): 115 nM; EC50 ([1]; source GSK): 151 nM
10 | 1510 | CCOC(=O)C1=C(C)N=c2sc(=Cc3ccccc3O)c(=O)n2C1c1ccc(OC)c2ccccc12 (stereo not drawn) [MMV666604] | 97 | EC50 ([1]; source GSK (TCMDC ids)): 1260 nM
11 | 400 | Cc1cccc(Nc2nc(N)c3ccccc3n2)c1 [MMV019110] | – | EC50 ([1]; source GSK (TCMDC id)): 574 nM; inhibition of growth at 2 µM [2]: 97%
12 | 391 | CCN(CC)CCNc1ccnc2cc3ccccc3cc12 [MMV006303] | – | EC50 [1, 4]: 28.6 nM
13 | – | COc1ccc(-c2cn3c(C(=O)Nc4ccccc4Cl)c(-c4ccccc4)c4c3n2CCCC4)cc1 [MMV020403] | 80 | EC50 [1, 4]: 792 nM
14 | 4000 | Cc1ccc(Nc2nc(N)c3ccccc3n2)cc1Cl [MMV011522] | – | inhibition of growth at 2 µM [2]: 96%
15 | 683 | Cc1cc(N2CCN(C3CCCC3)CC2)n2c(nc3ccccc32)c1C#N [MMV006706] | – | EC50 [1, 3]: 743 nM
16 | 314 | CCOC(=O)c1cnc2c(C)cccc2c1Nc1ccc(C(C)=O)cc1 [MMV006250] | 94 | EC50 ([1]; source GNF (GNF-Pf ids)): 119 nM
17 | 735 | O=C(Nc1ccc(N2CCCCC2)c(Cl)c1)c1ccc(Br)o1 [MMV019700] | 96 | EC50 [1, 3]: 549 nM
18 | 589 | COc1ccc(Nc2nc(NCc3ccccc3)c3ccccc3n2)cc1 [MMV000963] | – | –
19 | 89.9 | COc1ccc(-c2cc3c(SCC(=O)Nc4cc(C(F)(F)F)ccc4Cl)nccn3n2)cc1 [MMV396679] | – | –
20 | 1150 | COc1cccc(C2(C)Nc3ccccc3-c3nc4ccccc4n32)c1 (stereo not drawn) [MMV396719] | – | –
21 | 939 | COC(=O)c1ccc(Cl)c2c1C1C=CCC1C(c1cccc3ccccc13)N2 (stereo not drawn) [MMV667489] | – | –
22 | 1180 | Cc1sc(NC(=O)c2ccccc2)c(C(c2cccs2)N2CCN(c3ccccc3)CC2)c1C (stereo not drawn) [MMV396652] | – | –
23 | 85.7 | Cc1cc(C)cc(Nc2cc(C)nc3nc(C(F)(F)F)nn23)c1 [MMV011259] | – | –
24 | 718 | CCN(CC)CCn1c(=N)n(CC(O)c2ccc(Cl)c(Cl)c2)c2ccccc21 (stereo not drawn) [MMV000248] | 97 | –
25 | 385 | Nc1ccn([C@@H]2O[C@H](CO)[C@@H](O)[C@H]2O)c(=O)n1 [MMV638723] | – | –

Row | EC50 [2] [nM] | SMILES | inhibition of growth at 5 µM [2] [%] | other results
26 | 1240 | N=c1n(CCN2CCCCC2)c2ccccc2n1CC(=O)c1ccc(Cl)c(Cl)c1 [MMV396723] | – | –
27 | 686 | COc1ccc2nc(C)cc(Nc3ccccc3O)c2c1 [MMV274073] | – | –
28 | 1190 | CN1CCN(c2ncnc3c2[nH]c2ccc(Cl)cc23)CC1 [MMV396704] | – | –
29 | 1010 | CCOc1ccccc1CN1CCc2nc3cc(C(C)(C)C)nn3c(O)c2C1 [MMV396595] | – | –
30 | 1060 | OC(CNCC1CCCO1)Cn1c2ccc(Cl)cc2c2cc(Cl)ccc21 (stereo not drawn) [MMV396736] | – | –
31 | 478 | COc1ccccc1N1C(=N)SC(=Cc2ccc(OCc3ccccc3F)cc2)C1=O [MMV007199] | 95 | –
32 | 477 | COc1ccc(-c2c(C)nn3c(N)c(C#N)cnc23)cc1OC [MMV396797] | – | –
33 | 916 | COc1ccc(CCN2C(=O)c3[nH]nc(-c4cc(Cl)c(C)cc4O)c3C2c2ccccc2F)cc1 (stereo not drawn) [MMV396717] | – | –
34 | 551 | COc1ccc(C=C2SC(Nc3ccccc3)=NC2=O)cc1 [MMV665836] | 71 | –
35 | 1100 | CCOC(=O)c1cnc2ccc(OC)cc2c1Nc1ccc(N2CCN(C)CC2)cc1 [MMV000704] | – | –
36 | 406 | CCN(CC)CCNc1ncnc2c1[nH]c1ccc(Cl)cc12 [MMV396703] | – | –
37 | 1430 | CN1CCN(c2nc(Nc3ccc(O)cc3)nc3ccccc23)CC1 [MMV000986] | – | –
38 | 326 | Oc1ccc(-c2nc(-c3ccc4oc5ccc(-c6[nH]c(-c7ccc(O)cc7)nc6-c6ccccc6)cc5c4c3)c(-c3ccccc3)[nH]2)cc1 [MMV000753] | 98 | –
39 | 218 | O=C(CSc1nccn2nc(-c3ccccc3)cc12)Nc1cc(C(F)(F)F)ccc1Cl [MMV396678] | – | –
40 | 1060 | Brc1ccc(Nc2nc3ccccc3nc2Nc2ccc(Br)cc2)cc1 [MMV007224] | 98 | –
41 | 746 | CCOc1cc2c(cc1OCC)C(c1cc(Cl)ccc1O)NCC2 (stereo not drawn) [MMV000478] | 98 | –
42 | 1070 | Cc1cc(N2CCCC2)nc(Nc2ccc(NC(=O)CCc3ccccc3)cc2)n1 [MMV396669] | – | –
43 | 1000 | Nc1nc(Nc2cccc(F)c2)nc2ccccc12 [MMV080034] | – | –
44 | 1160 | N#Cc1nc(Cc2cccc3ccccc23)oc1N1CCN(C(c2ccccc2)c2ccccc2)CC1 [MMV396726] | – | –
45 | 1330 | O=C(NNc1cc(N2CCCC2)nc(N2CCCC2)n1)c1ccccc1 [MMV396770] | – | –
46 | 959 | Cc1cc(NC(=O)c2cccc(C(F)(F)F)c2)n(-c2nc(-c3ccc4c(c3)OCO4)cs2)n1 [MMV396681] | – | –
47 | 1730 | CC1(c2ccccc2)Nc2ccccc2-c2nc3ccccc3n21 (stereo not drawn) [MMV396715] | – | –
48 | – | COc1cc2cc(C(=O)Nc3ccccc3)c(N)nc2cc1OC [MMV006767] | 99 | –
49 | 1790 | COc1ccc(C2c3ccc4ccccc4c3Oc3ncn(CCCn4ccnc4)c(=N)c32)cc1OC (stereo not drawn) [MMV667490] | – | –
50 | 995 | O=c1nc(C=Cc2ccc(Cl)cc2)oc2ccccc12 [MMV007977] | 76 | –

Row | EC50 [2] [nM] | SMILES | inhibition of growth at 5 µM [2] [%] | other results
51 | 2000 | COc1ccc2nc(C)cc(Nc3ccc(Cl)cc3)c2c1 [MMV007875] | – | inhibition of growth at 2 µM [2]: 95%
52 | 1060 | COc1ccc(-c2nc(N3CCN(C(=O)C4CCCCC4)CC3)c3c4c(sc3n2)CCCC4)cc1 [MMV396594] | – | –
53 | 1390 | COc1cccc(Cn2c(Oc3ccccc3)nc3c2c(=O)n(C)c(=O)n3C)c1 [MMV396705] | – | –
54 | 832 | CC(C)CNC(=O)c1c(N)n(CCc2ccccc2F)c2nc3ccccc3nc12 [MMV396744] | – | –
55 | – | CN(C)c1ccc(N2C(N)=NC(N)=NC2(C)C)cc1 [MMV667487] | – | inhibition of growth at 2 µM [2]: 95%
56 | 1160 | CC(C)(C)CC(C)(C)NCC(O)COc1ccc(Cl)cc1Cl (stereo not drawn) [MMV396794] | – | –
57 | 1010 | Oc1c(C(Nc2ccccn2)c2cccc(Oc3ccccc3)c2)ccc2cccnc12 (stereo not drawn) [MMV665814] | 97 | –
58 | 1050 | CCOc1c(Cl)cc(CNCC(O)c2ccccc2)cc1OC (stereo not drawn) [MMV396632] | – | –
59 | 941 | CCOc1ccc(C2N(C)c3ccccc3N2C)cc1 [MMV075490] | 72 | –
60 | 615 | CCOC(=O)c1c(C)n(-c2ccccc2)c2ccc(OC(=O)c3cc(OC)c(OC)c(OC)c3)cc12 [MMV396664] | – | –
61 | 591 | COc1ccc(C=C2SC(Nc3ccc(F)cc3)=NC2=O)c(OC)c1 [MMV084434] | 92 | –
62 | 959 | O=C(NC1CCN(Cc2ccccc2)CC1)c1cc2nc(-c3ccc(Cl)s3)cc(C(F)(F)F)n2n1 [MMV396635] | – | –
63 | 890 | O=C1C2=C(Nc3ccccc3SC2c2ccccc2)c2ccccc21 (stereo not drawn) [MMV645672] | – | –
64 | 92.8 | Cc1ccc(-c2cc3c(SCC(=O)Nc4cc(C(F)(F)F)ccc4Cl)nccn3n2)cc1 [MMV396680] | – | –
65 | – | CCOc1ccc(N2C(N)=NC(N)=NC2(C)C)cc1 [MMV667486] | – | inhibition of growth at 2 µM [2]: 92%
66 | 1020 | Cc1sc(NC(=O)c2ccco2)c(C(c2cccnc2)N2CCC(Cc3ccccc3)CC2)c1C (stereo not drawn) [MMV396663] | – | –
67 | 1230 | COc1ccc(C2c3ccc4ccccc4c3Oc3ncn(CCCN(C)C)c(=N)c32)cc1 (stereo not drawn) [MMV667491] | – | –
68 | 693 | CCn1nc(-c2ccc(C(=O)OC)cc2)nc2c(=O)n(C)c(=O)nc1-2 [MMV306025] | – | –
69 | 611 | Oc1ccccc1CN1CCN(C(c2ccccc2)c2ccccc2)CC1 [MMV011795] | 97 | –
70 | 898 | COc1cc(C(=O)Nc2nc3c(cc4c5c(cccc53)CC4)s2)cc(OC)c1OC [MMV396665] | – | –
71 | 928 | COc1ccc2c(c1)C1(Nc3ccccc3-c3nc4ccccc4n31)C(=O)N2 (stereo not drawn) [MMV396749] | – | –
72 | 433 | O=C(NCC(c1ccsc1)N1CCCCCC1)c1ccc(C(F)(F)F)cc1 (stereo not drawn) [MMV396672] | – | –
73 | 1010 | O=C(Nc1cccc(C2=NCCN2)c1)Nc1cccc(C2=NCCN2)c1 [MMV665810] | 83 | –

Row | SMILES | EC50 [2] [nM] | inhibition of growth at 5 µM [2] [%] | other results
74 | CN(N=O)C1=C(NC2CCCCC2)C(=O)c2ccccc2C1=O [MMV667492] | 1190 | – | –
75 | C[n+]1c2ccccc2nc2ccc(NCCO)cc21 [MMV396693] | 296 | – | –
76 | CCOc1cc(CNC(C)C(O)c2ccccc2)cc(Cl)c1OCC (stereo not drawn) [MMV396633] | 1240 | – | –
